Measured values from the NIST ThermoML archive (doi:10.1016/j.jct.2018.02.022).

Test: xn = mol fraction of the nth substance listed
Conditions: 92.3 kPa, Liquid; for viscosity: Concentric cylinders viscometry; for speed of sound: Frequency=3 MHz, Single path-length method; for mass density: Vibrating tube method

OCCOCCO [diethylene glycol] + O
Conditions | mass density, 293.15 K [kg/m3] | mass density, 298.15 K [kg/m3] | speed of sound, 293.15 K [m/s] | speed of sound, 298.15 K [m/s] | viscosity, 293.15 K [mPa·s] | viscosity, 298.15 K [mPa·s]
x1 = 0.0097 | 1006.17 | 1004.88 | 1511.2 | 1523 | – | –
x1 = 0.0201 | 1013.77 | 1012.33 | 1539.6 | 1549.1 | – | –
x1 = 0.0297 | 1020.4 | 1018.8 | 1563.6 | 1571.1 | – | –
x1 = 0.0397 | 1026.98 | 1025.23 | 1586.2 | 1591.7 | – | –
x1 = 0.049 | 1032.59 | 1030.67 | – | – | 2.119 | 1.717
x1 = 0.0502 | 1033.24 | 1031.33 | 1607.7 | 1611.3 | – | –
x1 = 0.0591 | 1038.24 | 1036.19 | 1624 | 1626.1 | – | –
x1 = 0.0703 | 1044.16 | 1041.95 | 1642.5 | 1643 | – | –
x1 = 0.0796 | 1048.67 | 1046.34 | 1655.5 | 1654.7 | – | –
x1 = 0.0897 | 1053.15 | 1050.7 | 1667.9 | 1665.9 | – | –
x1 = 0.0992 | 1057.14 | 1054.62 | – | – | 3.602 | 2.877
x1 = 0.1004 | 1057.71 | 1055.14 | 1679.7 | 1676.5 | – | –
x1 = 0.149 | 1074.04 | 1071.09 | – | – | 5.458 | 4.314
x1 = 0.1507 | 1074.47 | 1071.48 | 1713 | 1705.9 | – | –
x1 = 0.1996 | 1085.68 | 1082.45 | 1723.9 | 1714.7 | – | –
x1 = 0.1998 | 1085.89 | 1082.66 | – | – | 7.66 | 6.022
x1 = 0.2467 | 1093.59 | 1090.21 | 1723 | 1712.6 | – | –
x1 = 0.249 | 1093.81 | 1090.4 | – | – | 10.04 | 7.847
x1 = 0.2943 | 1098.86 | 1095.38 | 1716.6 | 1705.5 | – | –
x1 = 0.2987 | 1099.44 | 1095.93 | – | – | 12.55 | 9.772
x1 = 0.3501 | 1103.6 | 1100.05 | – | – | 15.18 | 11.79
x1 = 0.3511 | 1103.73 | 1100.19 | 1705.1 | 1693.5 | – | –
x1 = 0.3995 | 1106.65 | 1103.05 | 1694 | 1682.2 | – | –
x1 = 0.4007 | 1106.63 | 1103.05 | – | – | 17.72 | 13.74
x1 = 0.4504 | 1108.9 | 1105.32 | – | – | 20.13 | 15.59
x1 = 0.4527 | 1109.08 | 1105.5 | 1681.7 | 1669.8 | – | –
x1 = 0.4973 | 1110.6 | 1107.02 | – | – | 22.3 | 17.24
x1 = 0.5008 | 1110.76 | 1107.17 | 1670.7 | 1658.7 | – | –
x1 = 0.5449 | 1111.95 | 1108.36 | 1661.5 | 1649.4 | – | –
x1 = 0.553 | 1112.18 | 1108.61 | – | – | 24.68 | 19.07
x1 = 0.5834 | 1112.81 | 1109.23 | 1653.4 | 1641.4 | – | –
x1 = 0.5938 | 1113.09 | 1109.52 | – | – | 26.23 | 20.23
x1 = 0.6482 | 1113.95 | 1110.37 | 1640.7 | 1628.7 | – | –
x1 = 0.6514 | 1114.07 | 1110.49 | – | – | 28.3 | 21.86
x1 = 0.6864 | 1114.52 | 1110.94 | – | – | 29.45 | 22.7
x1 = 0.6982 | 1114.6 | 1111.02 | 1632.2 | 1620.2 | – | –
x1 = 0.7444 | 1115.11 | 1111.54 | 1624.4 | 1612.5 | – | –
x1 = 0.7556 | 1115.19 | 1111.61 | – | – | 31.37 | 24.17
x1 = 0.7962 | 1115.57 | 1112.01 | 1616.7 | 1604.8 | – | –
x1 = 0.7999 | 1115.52 | 1111.95 | – | – | 32.41 | 24.94
x1 = 0.8401 | 1115.89 | 1112.33 | 1610.4 | 1598.5 | – | –
x1 = 0.8525 | 1115.89 | 1112.33 | – | – | 33.47 | 25.8
x1 = 0.8947 | 1116.23 | 1112.67 | 1603.3 | 1591.5 | – | –
x1 = 0.9002 | 1116.23 | 1112.68 | – | – | 34.4 | 26.49
x1 = 0.9092 | 1116.32 | 1112.76 | 1601.5 | 1589.6 | – | –
x1 = 0.919 | 1116.37 | 1112.81 | 1600.2 | 1588.4 | – | –
x1 = 0.9303 | 1116.39 | 1112.85 | 1599.1 | 1587.2 | – | –
x1 = 0.9393 | 1116.4 | 1112.85 | 1598 | 1586.2 | – | –
x1 = 0.9473 | 1116.5 | 1112.94 | 1597.2 | 1585.3 | – | –
x1 = 0.9554 | 1116.57 | 1113.02 | – | – | 35.26 | 27.15
x1 = 0.9566 | 1116.55 | 1112.99 | 1596 | 1584.1 | – | –
x1 = 0.9694 | 1116.6 | 1113.04 | 1594.6 | 1582.7 | – | –
x1 = 0.9801 | 1116.65 | 1113.09 | 1593.4 | 1581.5 | – | –
x1 = 0.9915 | 1116.69 | 1113.13 | 1592.1 | 1580.3 | – | –
x1 = 1 | 1116.73 | 1113.17 | 1591 | 1579.1 | 35.89 | 27.67
